Results as given in the NIST ThermoML archive (doi:10.1021/je060271a).

Settings: 323.15 K, Liquid, Vibrating tube method

CCCCCC(=O)OCC(COC(=O)CCCCC)(COC(=O)CCCCC)COC(=O)CCCCC [pentaerythritol tetrahexanoate]
Settings	mass density [kg/m3]
1417.8 kPa	973.7
1423 kPa	973.6
1428.2 kPa	973.6
1434.7 kPa	973.7
1469.9 kPa	973.8
1475.5 kPa	973.7
1482.4 kPa	973.8
1487.6 kPa	973.7
1494.2 kPa	973.8
1505.5 kPa	973.8
1510.7 kPa	973.7
1517 kPa	973.8
1522.7 kPa	973.9
1529.6 kPa	973.7
1536.8 kPa	973.7
1600 kPa	973.8
1606.9 kPa	973.8
1612.8 kPa	973.9
1619 kPa	973.7
1626.3 kPa	973.9
1632.1 kPa	973.7
1639.4 kPa	973.9
1645.6 kPa	973.8
1653.1 kPa	973.9
1660 kPa	973.9
1667 kPa	973.8
1674.8 kPa	973.9
1682.8 kPa	973.8
1689 kPa	973.9
1695.8 kPa	973.9
1703.9 kPa	974
1710.5 kPa	973.9
1718.3 kPa	974
1725.1 kPa	973.9
1732.7 kPa	973.7
1739.2 kPa	973.8
1747.3 kPa	973.9
1753.9 kPa	973.9
1761.9 kPa	974
1770.6 kPa	973.9
1777.5 kPa	974
1896.8 kPa	974
1906.3 kPa	974
1914.3 kPa	974.1
1923.6 kPa	973.9
1931.8 kPa	974
1940.3 kPa	974
1947.8 kPa	974
1956.8 kPa	974.1
1966 kPa	974
1973.3 kPa	974
1981.3 kPa	974.1
1990.8 kPa	974.2
2115.6 kPa	974
2124.4 kPa	974.1
2134.6 kPa	974.2
2174 kPa	974.2
2184.9 kPa	974.2
2193.8 kPa	974.2
2203.2 kPa	974.3
2214.3 kPa	974.2
2223.5 kPa	974.3
2234.2 kPa	974.3
2245.5 kPa	974.4
2255 kPa	974.4
2264.6 kPa	974.2
2495.1 kPa	974.6
2505.3 kPa	974.6
2517.8 kPa	974.5
2528.6 kPa	974.4
2541.1 kPa	974.5
2553.7 kPa	974.6
2564.1 kPa	974.4
2574.7 kPa	974.3
2587.7 kPa	974.5
2599.7 kPa	974.4
2609.9 kPa	974.6
2622.2 kPa	974.5
2632.1 kPa	974.6
2642.3 kPa	974.5
2654.5 kPa	974.6
2664.9 kPa	974.6
2676.8 kPa	974.6
2689.2 kPa	974.6
2699.9 kPa	974.4
2710 kPa	974.6
2722.3 kPa	974.6
2732.8 kPa	974.6
2745.2 kPa	974.6
2758 kPa	974.5
2768.6 kPa	974.7
2779.1 kPa	974.7
2791.8 kPa	974.6
2801.9 kPa	974.7
2814.5 kPa	974.7
2827.5 kPa	974.6
2837.8 kPa	974.7
2849 kPa	974.6
2862 kPa	974.6
2872.9 kPa	974.7
2885.9 kPa	974.7
2910.2 kPa	974.8
2921.8 kPa	974.6
2946.6 kPa	974.8
2960 kPa	974.8
3369.6 kPa	975.1
3401.3 kPa	975.1
3416.4 kPa	975.1
3430.9 kPa	975.1
3448.4 kPa	975.1
3481 kPa	975.1
3512.7 kPa	975.1
3527.3 kPa	975.1
3544.2 kPa	975.1
3557.7 kPa	975.2
3574.4 kPa	975.2
3588.4 kPa	975.2
3605 kPa	975.1
3619.2 kPa	975.1
3805.2 kPa	975.3
3820 kPa	975.3
3837.5 kPa	975.4
3851.8 kPa	975.4
3869.3 kPa	975.5
3886.8 kPa	975.5
3901.9 kPa	975.4
3917 kPa	975.4
3935.3 kPa	975.5
3950.4 kPa	975.4
3968.8 kPa	975.5
3984.3 kPa	975.5
4002.9 kPa	975.4
4018.6 kPa	975.5
4034.4 kPa	975.4
4138.3 kPa	975.6
4157.9 kPa	975.5
4209.5 kPa	975.6
4228.7 kPa	975.6
4245.5 kPa	975.7
4265.2 kPa	975.6
4281.8 kPa	975.7
4301.8 kPa	975.7
4319.1 kPa	975.8
4339.5 kPa	975.8
